{"source": "patent US10058526B2", "about": "“Compositions containing pheromones for treating behavioural or medical problems linked to the stress of non-human mammals” (CEVA SANTE ANIMALE, priority 2014, dated 2018)", "note": "Where a name gives a salt, the structure may show the parent alone.", "data": [{"assay": "Diffusion of solvents in a 5.6 W electric diffuser (Example 1)", "type": "physicochemical", "details": "48 ml solvent, average per day over 30 days", "procedure": "48 ml of solvent to be tested are placed in a 5.6 W electric diffuser. The amount of solvent diffused is measured for 30 days following plugging in of the diffuser, and the average diffusion of product per day is calculated and summarized in Table 1 below: […]", "units": {"Diffusion of product": "g/day"}, "values": [{"compound": "CCOC(=O)CC(O)(CC(=O)OCC)C(=O)OCC", "note": "[Triethyl citrate]", "Diffusion of product": 1}, {"compound": "CO[C@H]1CO[C@H]2[C@@H]1OC[C@H]2OC", "note": "[Isosorbide dimethyl ether]", "Diffusion of product": 2}, {"compound": "Glycofurol", "Diffusion of product": 0.5}, {"compound": "CC1COC(=O)O1", "note": "(stereo not shown) [Propylene carbonate]", "Diffusion of product": 4}, {"compound": "CCCCCCCCCCCCCC(=O)OC(C)C", "note": "[Isopropyl myristate]", "Diffusion of product": 1}, {"compound": "CC(C)CCCCCCOC(=O)CCCCCC(C)C", "note": "[Isononyl isononanoate]", "Diffusion of product": 2}, {"compound": "CC(C)OC(=O)CCCCCCCCC(=O)OC(C)C", "note": "[Diisopropyl sebacate]", "Diffusion of product": 1}]}]}
